The nature of series [1]: in vivo. Particulars: rat, po, rats.
Series [2] is described as follows: Stability of CBD at room temperature and in the dark. The format is physicochemical. The following applies: room temperature; for degradation of CBD: 3 months.
For series [3] the following is noted: after oral administration; cited from earlier work.
Series [4] in a line: in vivo. Particulars: mouse, po, mice.
The mark [5] stands for this setting: kinetic detection (oral bioavailability), sesame oil alone.
Where [6] appears, read: oral bioavailability, administered as an unformulated oil extract.
Where [7] appears, read: oral bioavailability, formulated (mixture of sesame oil, amaranth oil and squalene).

Turning to `C=C(C)[C@@H]1CCC(C)=C[C@H]1c1c(O)cc(CCCCC)cc1O` [CBD, cannabidiol], the bioavailability in the series “in vivo [1]” (setting [5]) is 25 to 30%; in “in vivo [1]” (setting [6]) it was 5 to 6%; in “in vivo [1]” (setting [7]), around 60%; in the series “in vivo [4]” (setting [5]), 25 to 30%; in the series “in vivo [4]” (setting [6]), 5 to 6%; in the series “in vivo [4]” (setting [7]) it was around 50%. Further, the “degradation of CBD” value in series [2] (CBD from ethanolic cannabis extract formulated in a mixture of sesame oil, amaranth and squalene (at least 0.1%)) turned out to be 3%; in series [2] (CBD in products obtained by ethanolic extraction from cannabis) it was 8%; in series [2] (CBD in pure form (both amorphous and crystalline)) it was 11%; in series [2] (pure CBD formulated in a mixture of sesame oil, amaranth and squalene (at least 0.1%)), 4%. Further, in series [2] (CBD solubilised in sesame oil or amaranth oil or in squalene alone), the “instability compared with unformulated CBD” value was “did not show a statistically significant difference”. Also, the “time to reach peak plasma concentration” value in series [3] is 1 to 4 h.

As a reminder, the bioavailability is the share of a dose that reaches the circulation, judged against a reference dose that is usually intravenous.

Source of the values: patent US20240261305A1 (priority 2021, published 2024).
